Experimental data published in patent US20110230477A1, “COMPOUNDS, PHARMACEUTICAL COMPOSITION AND METHODS FOR USE IN TREATING METABOLIC DISORDERS” (Euroscreen S.A., priority 2008, published 2011).
Entries after “also recorded” stand apart in the source; their conditions may differ.

How the values were obtained:
[1] = molecular target: T1, human GPR43 receptor (hGPR43) (Homo sapiens, UniProt O15552); assay: GTPγS binding assay (SPA method); assay type: biochemical; conditions: membranes expressing hGPR43; assay performed in the presence of SCFA; read-out: EC50 (nM) in GTPγ35S assay
T1 construct: expressed in transfected cells
T1 sequence (O15552 1-330): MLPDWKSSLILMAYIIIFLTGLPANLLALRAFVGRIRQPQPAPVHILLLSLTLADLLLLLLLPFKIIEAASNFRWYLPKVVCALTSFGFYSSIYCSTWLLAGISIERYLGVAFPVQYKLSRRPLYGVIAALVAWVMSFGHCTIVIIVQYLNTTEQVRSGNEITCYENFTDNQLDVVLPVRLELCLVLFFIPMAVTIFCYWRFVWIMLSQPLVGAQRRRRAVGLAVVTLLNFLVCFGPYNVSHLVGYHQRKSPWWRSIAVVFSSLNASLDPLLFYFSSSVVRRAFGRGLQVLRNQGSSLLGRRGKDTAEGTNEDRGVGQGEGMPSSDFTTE
How it was run: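 Membranes (5 μg) from hGPR43-expressing cells were incubated 30 min at room temperature with [35S]GTPγS, compounds (30 μM to 1 nM) and WGA SPA beads. Buffer was 20 mM HEPES pH 7.4, 100 mM NaCl, 10 μg/ml saponin, 30 mM MgCl2 and 10 μM GDP, with SCFA present. Bound label was read by scintillation counting.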

[2] = tested on: adipocytes isolated from normal rats; assay: Lipolysis assay in isolated adipocytes (normal rats); assay type: cell-based; conditions: adipocytes isolated from normal rats (FIGS. 6 and 7)
Experimental: Isolated adipocytes were diluted to 5% in KRH-buffer and were pre-treated with compound of the invention (30 μM, 10 μM and 1 μM) for 30 min at 37° C./120 rpm. After the pre-treatment, Isoprenaline (1 μM) was added to the adipocytes followed by 30 min incubation at 37° C./150 rpm. The reactions were put on ice and the buffer was assayed spectrophotometrically for the production of […] from glycerol breakdown in reactions catalyzed by glycerol kinase and glycerol-3-phosphate dehydrogenase and/or Non Esterified Fatty Acid (NEFA). Each data point was investigated in triplicates in two independent experiments.

NCI-H716 cells = assay: GLP-1 release from NCI-H716 cells; assay type: cell-based, Human; conditions: NCI-H716 cells (FIG. 9)
Experimental: Human intestinal cell line NCI-H716 has been described as cellular model to assess compounds mimicking nutrient-mediated effect such as glucagon-like peptide-1 (GLP-1) secretion.
NCl-H716 cells (ATCC, Manassas) are cultured in Dulbecco's modified eagle's medium (DMEM) containing 10% (v/v) bovine serum, 2 mM L-glutamine, 100 IU/ml penicillin and 100 μg/ml streptomycin in 75 ml flask. Cell adhesion and endocrine differentiation is initiated by growing cells in 96-well plate coated with matrigel in High Glucose DMEM containing 10% (v/v) bovine serum, 2 mM L-glutamine, 100 IU/ml penicillin and 100 μg/ml streptomycin for 2 days. On day 2, the medium is removed and cells are washed once with a pre-warmed wash buffer (Phosphate Buffered salt solution). The wash solution is removed and the SCFA or the compounds of the invention, or a combination of both, are added at the desired concentration in High Glucose DMEM containing 0.1% (v/v) bovine serum and incubated for 2 hours at 37° C. The supernatants are collected in a container. Using the cell-free supernatants, the GLP-1 amount is assessed using a GLP-1 specific ELISA assay kit according the manufacturer's recommendations (ALPCON).

normal diet fed mice = assay: In vivo assay of anti-lipolytic activity in rodent model (plasma FFA); conditions: orally administered, 50mg/kg, 15 minutes following the dosing, vs vehicle (FIG. 8)
Experimental: Male C57BL/6N wild-type are housed one per cage in a room maintained on a 12 h light/dark cycle under constant temperature (22-25° C.) with ad libitum access to food and water. The anti-lipolytic effects of the compounds of the invention are studied in awake mice. Animals are fasted overnight before experimental use. On the day of the experiment, animals are put in metabolic cages and left undisturbed to acclimate to the environment for 1-2 h. blood samples are taken at indicated time points from the intraorbital retrobulbar plexus. A 1% sodium citrate saline solution is used to flush the lines. A pre-treatment blood sample is obtained from each animal to determine baseline values for free fatty acids (FFA) and triglycerides (TG). Compounds of the invention are given via oral gavage, sc injection, iv injection or ip injection for each different series of experiments. Blood samples are collected into pre-cooled tubes pre-coated with heparin (200 μl blood, Li-heparin, Sarstedt) for determination triglycerides and glycerol and in tri-potassium EDTA added sodium fluoride (200 μl blood, K3-EDTA, 1.6 mg/mL+1% NaF, Sarstedt) for determination of plasma free fatty acids. The tubes are placed on wet ice pending processing. Blood samples will be centrifuged at 4000×g, at 4° C., 15 min the resulting plasma will be transferred into non-coated tubes and stored at −80° C. until analyses. […]

EC50 [1] [nM]	Compound	isoprenaline-induced lipolysis [2]	GLP-1 secretion (NCI-H716 cells)	in vivo FFA baseline (normal diet fed mice)
38	COc1ccc(-c2ccccc2-c2csc(N(C)C(=O)[C@@H](CC(=O)O)CC3CCCC3)n2)cn1 [Compound 139, (R)-3-(cyclopentylmethyl)-4-((4-(2-(6-methoxypyridin-3-yl)phenyl)thiazol-2-yl)(methyl)amino)-4-oxobutanoic acid]	inhibit		
	COc1ccc(-c2ccccc2-c2csc(N(C(=O)[C@@H](CC(=O)O)CC3CCCC3)C3CC3)n2)cn1 [Compound 169, (R)-3-(cyclopentylmethyl)-4-(cyclopropyl(4-(2-(6-methoxypyridin-3-yl)phenyl)thiazol-2-yl)amino)-4-oxobutanoic acid]	inhibit	significantly increases	inhibition; also recorded: inhibit
57	O=C(O)C[C@@H](CC1CCCC1)C(=O)N(c1nc(-c2ccccc2-c2ccc(N3CCCC3=O)nc2)cs1)C1CC1 [Compound 183, (R)-3-(cyclopentylmethyl)-4-(cyclopropyl(4-(2-(6-(2-oxopyrrolidin-1-yl)pyridin-3-yl)phenyl)thiazol-2-yl)amino)-4-oxobutanoic acid]	inhibit		inhibition; also recorded: inhibit
102	COc1ncc(-c2ccc(Cl)cc2-c2csc(N(C)C(=O)[C@@H](CC(=O)O)Cc3ccccc3)n2)cc1Cl [Compound 222, (R)-3-benzyl-4-((4-(5-chloro-2-(5-chloro-6-methoxypyridin-3-yl)phenyl)thiazol-2-yl)(methyl)amino)-4-oxobutanoic acid]			
87	COc1ncc(-c2ccc(Cl)cc2-c2csc(N(C(=O)[C@@H](CC(=O)O)CC3CCCC3)C3CC3)n2)cc1Cl [Compound 223, (R)-4-((4-(5-chloro-2-(5-chloro-6-methoxypyridin-3-yl)phenyl)thiazol-2-yl)(cyclopropyl)amino)-3-(cyclopentylmethyl)-4-oxobutanoic acid]			
27	COc1ncc(-c2ccc(Cl)cc2-c2csc(N(C(=O)[C@@H](CC(=O)O)CC3CCCC3)C3CC3)n2)cc1F [Compound 224, (R)-4-((4-(5-chloro-2-(5-fluoro-6-methoxypyridin-3-yl)phenyl)thiazol-2-yl)(cyclopropyl)amino)-3-(cyclopentylmethyl)-4-oxobutanoic acid]			
628	C[C@@H](O)CN(C(=O)[C@@H](CC(=O)O)Cc1ccccc1)c1nc(-c2ccccc2Cl)cs1 [Compound 246, (R)-3-benzyl-4-((4-(2-chlorophenyl)thiazol-2-yl)((R)-2-hydroxypropyl)amino)-4-oxobutanoic acid]			

Compound	EC50 [1] [nM]	isoprenaline-induced lipolysis [2]	GLP-1 secretion (NCI-H716 cells)	in vivo FFA baseline (normal diet fed mice)
(3R)-4-((4-(2-chlorophenyl)thiazol-2-yl)(methyl)amino)-4-oxo-3-((tetrahydrofuran-2-yl)methyl)butanoic acid [Compound 155]	94	inhibit		
